According to patent US20250042855A1, “PERIPHERALLY AND LUMINALLY-RESTRICTED INHIBITORS OF THE SEROTONIN TRANSPORTER AS TREATMENTS FOR DISORDERS OF GASTROINTESTINAL MOTILITY AND GUT-BRAIN AXIS” (The Johns Hopkins University, priority 2021, published 2025):
Counter-ions that a name gives are not always drawn.

What was measured:
[1] = target: T1, serotonin transporter SERT (Homo sapiens, UniProt P31645); experiment: Uptake of serotonin (5-HT) in human HEK-293 cells, quantitation of [3H] serotonin; format: cell-based; details: HEK293, 0.25 h, 10 micromolar concentration, 15 minutes @ 25° C., read-out: Activity Range: antagonism of uptake of serotonin (5-HT)
T1 construct: host or cells: HEK-293
T1 sequence (P31645 whole entry): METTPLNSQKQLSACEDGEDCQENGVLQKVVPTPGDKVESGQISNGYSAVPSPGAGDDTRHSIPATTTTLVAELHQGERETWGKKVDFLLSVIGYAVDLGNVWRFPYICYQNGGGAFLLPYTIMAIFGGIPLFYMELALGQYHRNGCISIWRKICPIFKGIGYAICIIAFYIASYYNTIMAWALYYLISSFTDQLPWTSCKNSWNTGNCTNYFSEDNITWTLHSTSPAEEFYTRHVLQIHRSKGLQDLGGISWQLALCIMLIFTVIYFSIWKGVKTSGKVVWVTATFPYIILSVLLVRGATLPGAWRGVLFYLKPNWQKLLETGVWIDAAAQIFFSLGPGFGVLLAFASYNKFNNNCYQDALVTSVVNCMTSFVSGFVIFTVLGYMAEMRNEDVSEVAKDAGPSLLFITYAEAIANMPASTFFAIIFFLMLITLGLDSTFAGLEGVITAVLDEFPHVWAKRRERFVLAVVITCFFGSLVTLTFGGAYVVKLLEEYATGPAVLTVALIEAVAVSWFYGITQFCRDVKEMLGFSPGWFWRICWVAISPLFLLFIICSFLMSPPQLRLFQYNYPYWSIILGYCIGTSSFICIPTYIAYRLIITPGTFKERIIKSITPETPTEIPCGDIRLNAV
Protocol: Uptake of serotonin (5-Hydroxytryptamine (5-HT)) in human HEK-293 cells embryonic kidney was measured according to the literature procedure by Gu H, Wall S. C. and Rudnick G. J Biol Chem. 1994 269, 7124. Using the following conditions: • Quantitation Method: Quantitation of [^3H] Serotonin • Vehicle: 0.50% DMSO • Incubation Time/Temp: 15 minutes @ 25° C. • Incubation Buffer: 5 mM Tris —HCl, 7.5 mM HEPES, pH 7.1, 120 mM NaCl, 5.4 mM KCl, • 1.2 mM CaCl2, 1.2 mM MgSO4, 5 mM DGlucose, 1 mM Ascorbic Acid
Any compound with minimum of 20% antagonism at 10 micromolar concentration as described above, is deemed a SERT inhibitor.

[2] = tested on: gastric emptying in C57B/6 mice; experiment: Gastric emptying (phenol red) in IBS and control mice after 10 days of oral treatment; format: in vivo; details: P<0.05; for gastric emptying: 10 mg/kg by gavage once a day for 10 days, versus vehicle
From the text: In this experiment our aim was to study the effects of N-(2-((diaminomethylene)amino)ethyl)-4-(((3S,4R)-4-(4-fluorophenyl)piperidin-3-yl)methoxy)benzamide (example 8) in healthy mice as well as those with a model of gastrointestinal dysmotility (irritable bowel syndrome). The IBS model was induced by mild neonatal colorectal irritation in C57B/6 mice; control mice received saline. Twenty μL of 0.5% acetic acid (AA) or saline were infused into the colorectum of mice during postnatal day 9-12. Pups were weaned at 3 weeks of age and allowed to grow up normally and tested after 8-12 weeks of age.
Male IBS and control mice were treated with vehicle, Example 8 (10 mg/kg) and paroxetine (10 mg/kg) by gavage (10 ml/kg) once a day for 10 days. On the day 9, mice were fasted overnight. On the day 10, mice were treated with drugs followed by gavage with 0.3 ml of 0.05% phenol red in methylcellulose solution. Fifteen minutes later, mice were sacrificed and the stomach was removed after ligating the cardia and pylorus with hemostats. One mouse was sacrificed immediately after gavage of phenol red (0 time) used as control. The stomachs were homogenized and phenol red were extracted. After measuring the density of phenol red, the gastric empty was calculated as
The data were analyzed by Two-WAY ANOVA followed by Student-Newman-Keuls post-hoc test.

[3] = IBS mice (neonatal acetic acid colorectal irritation)

Row | Structure (SMILES) | inhibition at 10 µM [1] | other results
1 | O=C(O)c1ccc(OC[C@@H]2CNCC[C@H]2c2ccc(F)cc2)cc1 [Example 1, 4-(((3S,4R)-4-(4-fluorophenyl)piperidin-3-yl)methoxy)benzoic acid hydrochloride] | > 50% | 
2 | O=C(O)c1cccc(OC[C@@H]2CNCC[C@H]2c2ccc(F)cc2)c1 [Example 2, 3-(((3S,4R)-4-(4-fluorophenyl)piperidin-3-yl)methoxy)benzoic acid hydrochloride] | 40 to 50% | 
3 | O=C(O)c1ccc(OC[C@@H]2CNCC[C@H]2c2ccc(F)cc2)cc1O [Example 3, 4-(((3S,4R)-4-(4-fluorophenyl)piperidin-3-yl)methoxy)-2-hydroxybenzoic acid hydrochloride] | > 50% | 
4 | COc1ccc(OC[C@@H]2CNCC[C@H]2c2ccc(F)cc2)cc1C(=O)O [Example 4, 5-(((3S,4R)-4-(4-fluorophenyl)piperidin-3-yl)methoxy)-2-methoxybenzoic acid hydrochloride] | > 50% | 
5 | NCCNC(=O)c1ccc(OC[C@@H]2CNCC[C@H]2c2ccc(F)cc2)cc1 [Example 5, N-(2-aminoethyl)-4-(((3S,4R)-4-(4-fluorophenyl)piperidin-3-yl)-methoxy)benzamide hydrochloride] | > 50% | 
6 | CN(C)CCNC(=O)c1ccc(OC[C@@H]2CNCC[C@H]2c2ccc(F)cc2)cc1 [Example 6, N-(2-(dimethylamino)ethyl)-4-(((3S,4R)-4-(4-fluorophenyl)piperidin-3-yl)methoxy)benzamide hydrochloride] | > 50% | 
7 | CN(C)CCN(C)C(=O)c1ccc(OC[C@@H]2CNCC[C@H]2c2ccc(F)cc2)cc1 [Example 7, N-(2-(dimethylamino)ethyl)-4-(((3S,4R)-4-(4-fluorophenyl)piperidin-3-yl)methoxy)-N-methylbenzamide hydrochloride] | > 50% | 
8 | NC(N)=NCCNC(=O)c1ccc(OC[C@@H]2CNCC[C@H]2c2ccc(F)cc2)cc1 [Example 8, N-(2-((diaminomethylene)amino)ethyl)-4-(((3S,4R)-4-(4-fluorophenyl)piperidin-3-yl)methoxy)benzamide] | > 50% | liquid gastric emptying ([2]; FIG. 1, chronic treatment, versus H2O treated group in the same model): increases; gastric emptying [2, 3]: significantly increased; gastric emptying ([2]; saline (control) mice): significantly increased
9 | NC(=O)NCCNC(=O)c1ccc(OC[C@@H]2CNCC[C@H]2c2ccc(F)cc2)cc1 [Example 9, 4-(((3S,4R)-4-(4-fluorophenyl)piperidin-3-yl)methoxy)-N-(2-ureidoethyl)benzamide hydrochloride] | > 50% | 
10 | NCCOc1ccc(OC[C@@H]2CNCC[C@H]2c2ccc(F)cc2)cc1 [Example 10, 2-(4-(((3S,4R)-4-(4-fluorophenyl)piperidin-3-yl)methoxy)phenoxy)-ethan-1-amine hydrochloride] | 40 to 50% | 
11 | CN(C)CCOc1ccc(OC[C@@H]2CNCC[C@H]2c2ccc(F)cc2)cc1 [Example 11, 2-(4-(((3S,4R)-4-(4-fluorophenyl)piperidin-3-yl)methoxy)phenoxy)-N,N-dimethylethan-1-amine hydrochloride] | 40 to 50% | 
12 | CN(C)CCCOc1ccc(OC[C@@H]2CNCC[C@H]2c2ccc(F)cc2)cc1 [Example 12, 3-(4-(((3S,4R)-4-(4-fluorophenyl)piperidin-3-yl)methoxy)phenoxy)-N,N-dimethylpropan-1-amine hydrochloride] | > 50% | 
13 | OCCOc1ccc(OC[C@@H]2CNCC[C@H]2c2ccc(F)cc2)cc1 [Example 13, 2-(4-(((3S,4R)-4-(4-fluorophenyl)piperidin-3-yl)methoxy)phenoxy)ethan-1-ol hydrochloride] | > 50% | 
14 | OCCOCCOc1ccc(OC[C@@H]2CNCC[C@H]2c2ccc(F)cc2)cc1 [Example 14, 2-(2-(4-(((3S,4R)-4-(4-fluorophenyl)piperidin-3-yl)methoxy)phenoxy)ethoxy)ethan-1-ol hydrochloride] | 20 to 40% | 
15 | O=C(O)COc1ccc(OC[C@@H]2CNCC[C@H]2c2ccc(F)cc2)cc1 [Example 15, 2-(4-(((3S,4R)-4-(4-fluorophenyl)piperidin-3-yl)methoxy)phenoxy)acetic acid hydrochloride] | 20 to 40% | 
16 | O=C(O)COCCOc1ccc(OC[C@@H]2CNCC[C@H]2c2ccc(F)cc2)cc1 [Example 16, 2-(2-(4-(((3S,4R)-4-(4-fluorophenyl)piperidin-3-yl)methoxy)phenoxy)-ethoxy)acetic acid hydrochloride] | 20 to 40% | 
17 | C[N+]1(C)CC[C@@H](c2ccc(F)cc2)[C@H](CCc2ccc3c(c2)OCO3)C1 [Example 17, (3S,4R)-3-(2-(benzo[d][1,3]dioxol-5-yl)ethyl)-4-(4-fluorophenyl)-1,1-dimethylpiperidin-1-ium iodide] | > 50% | 
18 | Fc1ccc([C@@H]2CCNC[C@H]2COc2ccc3c(c2)OCO3)cc1 [paroxetine, reference compound] |  | gastric emptying [2, 3]: not observed; gastric emptying ([2]; saline (control) mice): not observed
